Several values for one entry are separate records, joined by “and”; a condition that tells them apart may be missing. Equal entries are not always repeated.

In one experiment the test system is normal sera. Description: ELISA of peptides on normal sera (specificity). The class given is binding, human. The note with it: peptide 10 μg/ml, duplicate. Here is the method: (§1) Detection of anti-HCV Antibodies by ELISA
(§2) The wells of a microtiter plate of "NUNC MAXISORB™" trademark are saturated with 100 μl of a solution containing the peptide or a mixture of peptides (10 μg/ml) for 2 hours at 37° C. The plate is then emptied, then washed with a wash buffer containing 0.05% TWEEN™ 20(polysorbate 20). The wells are saturated with 100 μl of wash buffer supplemented with 10% goat serum (v/v), then incubated for 30 minutes at 37° C., then washed again as above. The sera to be analyzed are diluted to the appropriate dilution with saturation buffer. The incubation of the sera is 1 hour at 37° C. The wells are again washed. The solution of conjugate (goat IgG to human IgG labelled with peroxidase) at a dilution of 1/1000 in the saturation buffer is then added and the incubation lasts for 90 minutes at 37° C. After washing, the solution of orthophenylenediamine substrate is added. After 10 minutes, the reaction is stopped with 50 μl of H2 SO4 and the optical density is read at 492 nm. It should be noted that all the tests were carried out in duplicate.
(§3) For that, the different peptides are adsorbed on the microplates at a concentration of 10 μg/ml and the sera are used at 1/100 dilution.
(§4) The values obtained, which are collated in Table 1 below, correspond to the optical density (OD) multiplied by 10^3, at 492 nm.
(§5) For each serum the experiment was carried out in duplicate. The **** are values outside the upper scale.
(An ELISA detects its analyte on a solid surface through an enzyme-linked reagent.)

Experiment [1] has as its system anti-HCV antibodies (HCV-positive sera). As to the kind of experiment: ELISA detection of anti-HCV antibodies in HCV-positive sera with adsorbed peptides. The class given is binding, human. Here is the method:
The reactivity of these three peptides towards the sera of individuals infected with the hepatitis C virus, termed (HCV) positive, was evaluated in an ELISA test according to the procedure described below.
as §1, §2, §3, §4, §5
The different peptides are absorbed onto microplates at a concentration of 10 μg/ml and the sera are used at the dilution stated.
The values obtained, which are collated in Table 2 below, correspond to the optical density at 492 nm. All the experiments were carried out in duplicate.
Each serum was, in a first instance, tested at the dilution 1/100.
The values given correspond to the optical density read at 492 nm multiplied by the factor 10^3.

Another experiment relates to HCV-positive sera. The note with it: Nasoff et al., recombinant fusion proteins; cited from earlier work.

Consider “R40R: peptide extending from arginine 74 up to arginine 115 of the HCV CORE protein (RTWAQPGYPWPLYGNEGCGWAGWLLSPRGSRPSWGPTDPRRR)”, for which the “optical density at 492 nm” value in the experiment on normal sera (normal serum SN 10, 1/100) is 163 OD × 10^3 and 154 OD × 10^3; in the experiment on normal sera (normal serum SN 11, 1/100) it was 150 OD × 10^3 and 138 OD × 10^3; with normal sera (normal serum SN 16, 1/100) it was 426 OD × 10^3 and 439 OD × 10^3; in the experiment with normal sera (normal serum SN 17, 1/100) it was 104 OD × 10^3 and 74 OD × 10^3; with normal sera (normal serum SN 18, 1/100), 119 OD × 10^3 and 87 OD × 10^3; in the experiment with normal sera (normal serum SN 19, 1/100) it was 480 OD × 10^3 and 496 OD × 10^3. In addition, the “optical density at 492 nm” value in experiment [1] (serum B 1, 1/100, peptide 10 μg/ml, duplicate) was 172 OD × 10^3 and 173 OD × 10^3; in experiment [1] (serum B 2, 1/100, peptide 10 μg/ml, duplicate), 364 OD × 10^3 and 345 OD × 10^3; in experiment [1] (serum B 3, 1/100, peptide 10 μg/ml, duplicate) it was 304 OD × 10^3 and 341 OD × 10^3; in experiment [1] (serum B 4, 1/100, peptide 10 μg/ml, duplicate), 405 OD × 10^3 and 346 OD × 10^3; in experiment [1] (serum B 5, 1/100, peptide 10 μg/ml, duplicate), 360 OD × 10^3 and 281 OD × 10^3; in experiment [1] (serum B 6, 1/100, peptide 10 μg/ml, duplicate), 172 OD × 10^3 and 163 OD × 10^3. Also, the “optical density at 492 nm” value was 418 OD × 10^3 and 457 OD × 10^3 in experiment [1] (serum B 7, 1/100, peptide 10 μg/ml, duplicate); 271 OD × 10^3 and 259 OD × 10^3 in experiment [1] (serum B 8, 1/100, peptide 10 μg/ml, duplicate); 235 OD × 10^3 and 229 OD × 10^3 in experiment [1] (serum B 9, 1/100, peptide 10 μg/ml, duplicate); 108 OD × 10^3 and 98 OD × 10^3 in experiment [1] (serum B 10, 1/100, peptide 10 μg/ml, duplicate); 164 OD × 10^3 and 184 OD × 10^3 in experiment [1] (serum B 11, 1/100, peptide 10 μg/ml, duplicate); 136 OD × 10^3 and 117 OD × 10^3 in experiment [1] (serum B 12, 1/100, peptide 10 μg/ml, duplicate). For the same substance, the “optical density at 492 nm” value is 140 OD × 10^3 and 99 OD × 10^3 in experiment [1] (serum B 13, 1/100, peptide 10 μg/ml, duplicate); 130 OD × 10^3 and 125 OD × 10^3 in experiment [1] (serum B 14, 1/100, peptide 10 μg/ml, duplicate); 301 OD × 10^3 and 303 OD × 10^3 in experiment [1] (serum B 15, 1/100, peptide 10 μg/ml, duplicate); 117 OD × 10^3 and 125 OD × 10^3 in experiment [1] (serum B 16, 1/100, peptide 10 μg/ml, duplicate); 375 OD × 10^3 and 420 OD × 10^3 in experiment [1] (serum P 1, 1/100, peptide 10 μg/ml, duplicate); 399 OD × 10^3 and 391 OD × 10^3 in experiment [1] (serum P 2, 1/100, peptide 10 μg/ml, duplicate). The “optical density at 492 nm” value was 223 OD × 10^3 and 215 OD × 10^3 in experiment [1] (serum P 3, 1/100, peptide 10 μg/ml, duplicate); 309 OD × 10^3 and 307 OD × 10^3 in experiment [1] (serum P 4, 1/100, peptide 10 μg/ml, duplicate); 129 OD × 10^3 and 176 OD × 10^3 in experiment [1] (serum P 5, 1/100, peptide 10 μg/ml, duplicate); 87 OD × 10^3 and 100 OD × 10^3 in experiment [1] (serum P 6, 1/100, peptide 10 μg/ml, duplicate); 496 OD × 10^3 and 478 OD × 10^3 in experiment [1] (serum P 7, 1/100, peptide 10 μg/ml, duplicate); 282 OD × 10^3 and 328 OD × 10^3 in experiment [1] (serum P 8, 1/100, peptide 10 μg/ml, duplicate). Also, the “optical density at 492 nm” value in experiment [1] (serum P 9, 1/100, peptide 10 μg/ml, duplicate) was 159 OD × 10^3 and 158 OD × 10^3; in experiment [1] (serum P 10, 1/100, peptide 10 μg/ml, duplicate) it was 218 OD × 10^3 and 216 OD × 10^3; in experiment [1] (serum P 11, 1/100, peptide 10 μg/ml, duplicate), 1191 OD × 10^3 and 1377 OD × 10^3; in experiment [1] (serum P 12, 1/100, peptide 10 μg/ml, duplicate), 1121 OD × 10^3 and 1231 OD × 10^3; in experiment [1] (serum P 13, 1/100, peptide 10 μg/ml, duplicate), 113 OD × 10^3 and 116 OD × 10^3; in experiment [1] (serum P 14, 1/100, peptide 10 μg/ml, duplicate), 280 OD × 10^3 and 270 OD × 10^3. The “optical density at 492 nm” value in experiment [1] (serum P 15, 1/100, peptide 10 μg/ml, duplicate) is 2305 OD × 10^3 and 2335 OD × 10^3; in experiment [1] (serum P 16, 1/100, peptide 10 μg/ml, duplicate), 938 OD × 10^3 and 964 OD × 10^3; in experiment [1] (serum P 17, 1/100, peptide 10 μg/ml, duplicate), 217 OD × 10^3 and 212 OD × 10^3; in experiment [1] (serum P 18, 1/100, peptide 10 μg/ml, duplicate), 1427 OD × 10^3 and 1327 OD × 10^3; in experiment [1] (serum P 19, 1/100, peptide 10 μg/ml, duplicate), 84 OD × 10^3 and 89 OD × 10^3; in experiment [1] (serum P 20, 1/100, peptide 10 μg/ml, duplicate), 714 OD × 10^3 and 740 OD × 10^3. In experiment [1] (cf Table 1), the “sera with which the peptide reacts” value is “about 10%”.

In the case of glutathione S-transferase, in the experiment on HCV-positive sera, the “reactivity towards HCV-positive sera” value is on record as “none of the sera tested reacts”.

In the case of “K32G: peptide corresponding to the amino acid sequence 12 to 45 of the CORE protein (KRNTNRRPQDVKFPGGGQIVGGVYLLPRRGPTLG)”, the “optical density at 492 nm” value in experiment [1] (Table 5, serum A8, 1/10,000) came to 666 OD × 10^3; in experiment [1] (Table 5, serum A 9, 1/1000), 1675 OD × 10^3; in experiment [1] (Table 5, serum A 9, 1/10,000), 229 OD × 10^3; in experiment [1] (Table 5, serum A11, 1/1000), 2108 OD × 10^3; in experiment [1] (Table 5, serum A11, 1/10,000) it was 343 OD × 10^3; in experiment [1] (Table 5, serum A12, 1/10,000) it was 598 OD × 10^3. The “optical density at 492 nm” value in experiment [1] (Table 5, serum A13, 1/10,000) is recorded as 1247 OD × 10^3; in experiment [1] (Table 5, serum A14, 1/1000) it was 998 OD × 10^3; in experiment [1] (Table 5, serum A14, 1/10,000), 103 OD × 10^3; in experiment [1] (Table 5, serum A15, 1/10,000), 715 OD × 10^3; in experiment [1] (Table 5, serum A19, 1/10,000), 594 OD × 10^3; in experiment [1] (Table 5, serum A21, 1/1000) it was 993 OD × 10^3. The “optical density at 492 nm” value in experiment [1] (Table 5, serum A21, 1/10,000) was found to be 123 OD × 10^3; in experiment [1] (Table 5, serum A22, 1/1000) it was 876 OD × 10^3; in experiment [1] (Table 5, serum A22, 1/10,000), 129 OD × 10^3; in experiment [1] (Table 5, serum A23, 1/10,000) it was 774 OD × 10^3. Further, the “reactivity towards HCV-positive sera” value in experiment [1] (in words) is given as “little or no difference is observed in reactivity”.

The record behind these values is patent US6235284A, “Synthetic polypeptides belonging to the hepatitis C virus (HCV) and which can be used especially for detecting the latter” (Bio Merieux, priority 1992, dated 2001).
